For data set [1], the system named is HIV-1. The experiment in a line: HIV-1 replication, reverse transcriptase (RT) assay in CEM cells. It is filed as cell-based, HIV-1 strain IIIB. How it is done:
(§1) CEM cells and strain IIIB of HIV-1 were obtained through courtesy of Dr. Louis S. Kurcera, Boman Gray School of Medicine, Wake Forest University. CEM cells were grown in suspension culture and passaged through conventional procedures.
The activity of compounds against HIV-1 replication was determine by using reverse transcriptase (RT) as a marker for HIV-1. Strain IIIB of HIV-1 was grown in CEM cells maintained in suspension culture as detailed previously (see Kucera et al. AIDS Res. Human Retroviruses, 1993, Vol. 9, pp. 307-314). The assay measured the presence of HIV in supernatants of infected CEM cells by determining the amount of RT activity. Cells were grown, infected with HIV-1, and incubated in the presence of seven concentrations (one-half log10 dilutions) of the test compounds beginning at 1 or 100 μM concentration, depending on the compound to be assayed. Procedures and the RT assay were performed as detailed previously (see White et al., Antiviral Res. 1991, Vol. 16, pp. 257-266).

In data set [2] the test system is HCMV. The experiment in a line: HCMV plaque (focus) reduction assay in HFF cells. It is filed as cell-based. The conditions noted are these: read-out: 50% Inhibitory Concentration IC50, Antiviral Activity, HCMV (plaque assay in HFF cells). As for the experimental part:
(§2) KB cells (available from the American Type Culture Collection (ATCC) 12301 Parklawn Drive, […], Md. 20852 (ATCC CCL 17)), an established human cell line derived from an epidermal oral carcinoma, were grown in minimal essential medium (MEM) (Sigma) with Hanks salts (MEM(H)) supplemented with 5% fetal calf serum. Human foreskin fibroblasts (HFF cells) (provided by the University of Michigan Hospital) and African green monkey kidney cells (BSC-1) (ATTC CCL 26) cells were grown in MEM with Earl salts (MEM(E)) supplemented with 10% fetal bovine serum. Cells were passaged according to conventional procedures and as described in Shipman, C., Jr. et al. (1976) Antimicrob. Agents Chemother. Vol. 9:120 and incorporated herein by reference. Briefly, cells were passaged at 1:2 to 1:10 dilutions according to conventional procedures by using 0.05% trypsin plus 0.02% EDTA in a HEPES buffered salt solution. HFF cells were passaged onlv at 1:2 dilutions.
(§3) A plaque purified isolate, Po, of the Towne strain of HCMV was used in all experiments and was a gift of Dr. Mark Stinski, University of Iowa. The KOS strain of HSV-1 was used and was provided by Dr. Sandra K. Weller, University of Connecticut. Stock preparations of HCMV and HSV-1 were prepared and titered as known to those of skill and the art and described in Turk, S. R. et al. (1987) Antimicrob. Agents Chemother. Vol. 31:544-550 and Shipman, C., Jr., et al. (1990) J. Virol. Methods Vol. 28:101-106, each incorporated herein by reference.
Stock HCMV was prepared by infecting HFF cells at a multiplicity of infection (m.o.i.) of less that 0.01 plaque-forming units (p.f.u.) per cell. Cell growth medium was changed every four days until cytopathology was evident in all cells (approximately 21 days). Supernatant fluids were retained as the virus stock. Four days later, the remaining cells were disrupted by three cycles of freeze-thawing and the cell plus medium held as an additional source of virus. Storage was in liquid nitrogen.
HCMV was titered in 24-well cluster dishes which were plated to contain 5×10^4 HFF cells/well, grown as described above. When the cells were 70 to 80% confluent, 0.2 ml of the virus suspension was added per well and adsorbed as described above. At least three ten-fold dilutions of each preparation were used. Following virus adsorption, the cell sheets were overlayed with 0.5% methocel (4000 CPS) in maintenance medium [MEM(E) with 1.1 g/liter NaHCO3, 100 units/ml penicillin G, 100 μg/ml streptomycin, and 5% fetal bovine serum]. The cultures were incubated in a humidified atmosphere of 4% CO2 -96% air. Viral plaques were visible 5 to 7 days after infection using at least 10-fold magnification. Cells were fixed and stained by a 10-minute exposure to a 0.1% solution of crystal violet in 20% methanol 7 to 12 days after infection. Microscopic foci were enumerated at 20-fold magnification using a Nikon Profile Projector.
(§4) HCMV plaque reduction experiments were performed with monolayer cultures of HFF cells by a procedure similar to that referenced above for titration of the viruses and described in Devivar, R. V. et al. (1994) J. Med. Chem. Vol. 37:2942-2949. Activity of compounds against HSV-1 was evaluated using an ELISA assay.
The effect of compounds of the replication of HCMV was measured using a plaque (focus) reduction assay. For the former, HFF cells in 24-well culture dishes were infected with approximately 50 p.f.u. of HCMV per well using the procedures detailed above. Compounds dissolved in growth medium were added in four to six selected concentrations to duplicate wells following virus adsorption. Following incubation at 37 °C for 7 to 10 days, cell sheets were fixed, stained and microscopic plaques were enumerated as described above. Drug effects were calculated as a percentage of reduction in number of plaques in the presence of each drug concentration compared to the number observed in the absence of drug. […]

Data set [3] deals with HSV-1. Put plainly: HSV-1 ELISA assay. As to conditions: Human alphaherpesvirus 1; read-out: 50% Inhibitory Concentration IC50, Antiviral Activity, HSV-1 (ELISA assay). It is filed as cell-based, herpes simplex virus type 1, KOS strain. As for the experimental part:
as §2, §3
Briefly, high titer HSV-1 stocks were prepared as follows. Nearly confluent monolayer cultures of KB cells were grown in 32 oz. glass bottles containing MEM(E) buffered with 25 mM HEPES and supplemented with 5% fetal bovine serum and 0.127 giliter L-arginine (VGM, virus growth medium). The cultures were infected at a low input multiplicity to reduce the formation of defective virus. After cell cytopathology reached "three to four plus", the cells were harvested by vigorous shaking, and concentrated by centrifugation (800×g for 5 min.). The resulting virus pools were stored at -760C until retrieved for use in experiments.
HSV-1 was titered using monolayer cultures of BSC-1 cells. Cells were planted at 3×10^5 cells/well using 6-well cluster dishes. MEM(E) supplemented with 10% fetal bovine serum was employed as medium. After 22-24 h, cells were 90% confluent and were inoculated in triplicate using at least three ten-fold dilutions with 0.2 ml of the virus suspension to be assayed and incubated in a humidified 4% CO2 -[…] atmosphere for one hour to permit viral adsorption. Following virus adsorption, the cell sheet was overlayed with 5 ml of MEM(E) with 5% serum plus 0.5% methocel (4000 CPS) and incubated an additional two to three days. Cells were fixed and stained with 0.1% crystal violet in 20% methanol and macroscopic plaques enumerated.
as §4
ELISA techniques according to standard procedures were also used to determine activity against HSV-1. Drug effects were calculated as a percentage of the reduction in virus titers in the presence of each drug concentration compared to the titer obtained in the absence of drug. Ganciclovir was used as a positive control in all experiments.
A general note: In an ELISA, binding on a coated surface is turned into a signal by an enzyme label.

The nature of data set [4]: in vitro. It is filed as cell-based, human. The conditions noted are these: human, hff cells. How it is done: as §2
(§5) Two different methods were used to evaluate cytotoxicity of the compounds. First, cytotoxicity produced in stationary HFF cells was determined by microscopical examination of cells not affected by the virus used in the plaque assay. Second the effect of compounds on KB cells during two population doubling times was determined by crystal violet staining and spectrophotometric quantitation of dye eluted from stained cells. This method has been utilized for the analysis of ganciclovir and zidovudine (See Prichard, M. N. et al. Antiviral Res. (1991) Vol. 35:1060-1065).

Data set [5] can be described thus: Growth cytotoxicity in KB cells (crystal violet staining). Format: cell-based. The conditions noted are these: human, two population doubling times, read-out: 50% Inhibitory Concentration IC50, Cytotoxicity, Growth (KB cells). How it is done:
as §2, §5

Data set [6] can be described thus: Growth cytotoxicity in CEM cells. Format: cell-based. As to conditions: human, read-out: 50% Inhibitory Concentration IC50, Cytotoxicity, Growth (CEM cells). How it is done: as §1
In data set [7] the test system is HCMV. The conditions noted are these: background; cited from earlier work.
For data set [8] the following is noted: background; cited from earlier work.
The mark [9] stands for this setting: Human betaherpesvirus 5, HFF cells, 7 to 10 days.

Results on 5 compounds are retold here after patent US6214801A, “Imidazo[1,2-a]pyridine C-nucleosides as antiviral agents” (The Regents of the University of Michigan, priority 1999, dated 2001).

“Also recorded” adds a separate entry of the source. Like-named read-outs stand apart in the source and are kept apart here.

For “5-(5'-O-[(tert-Butyl)dimethylsilyl]-2',3'-O-isopropylidene-β-D-ribofuranosyl)-imidazo[1,2-a]pyridine [Compound 44]”, the “HIV-1 antiviral activity (in words)” value in data set [1] (Table 6) was “HIV-1 antiviral activity at non-cytotoxic concentrations”.

As for `Clc1cc2nc(Cl)c(C3C=CCO3)n2cc1Cl` (racemic) [Compound 26, 2,6,7-Trichloro-3-(2',3'-dideoxy-2',3'-didehydro-β-D/ L-erythro-furanosyl)-imidazo[1,2-a]pyridine], the IC50 in data set [2] (setting [9]) is 32 µM; in data set [3], more than 100 µM. For the same compound, the CC50 was 222 µM in data set [4], more than 100 µM in data set [5] and more than 100 µM in data set [6].

Turning to `OC[C@@H]1C=C[C@H](c2c(Cl)nc3cc(Cl)c(Cl)cn23)O1` [Compound 76, 2,6,7-Trichloro-3-(2',3'-dideoxy-2',3'-didehydro-β-D-ribofuranosyl) imidazo[1,2-a] pyridine], the IC50 in data set [2] (Human betaherpesvirus 5, HFF) was 32 µM; in data set [3] it was more than 100 µM. Besides, the CC50 in data set [4] was 100 µM; in data set [5], more than 100 µM; in data set [6], more than 100 µM. For the same compound, the “50% Inhibitory Concentration IC50, Antiviral Activity, HIV-1 (RT Assay)” value in data set [1] (CEM cells, strain IIIB) was 14/25.

Regarding `OC[C@H]1O[C@@H](n2cnc3cc(Cl)c(Cl)cc32)[C@H](O)[C@@H]1O` [DRB, 5,6-dichloro-1-(β-D-ribofuranosyl) benzimidazole], in data set [7], the “antiviral activity of known compounds (in words)” value is given as “only marginal levels of activity”. Also, in data set [8], the “cytotoxicity of known compounds (in words)” value is listed as “generally unacceptable levels of cytotoxicity”.

For the compound `OC[C@H]1O[C@@H](n2c(Cl)nc3cc(Cl)c(Cl)cc32)[C@H](O)[C@@H]1O` [TCRB, 2,5,6-trichloro-1-(2'-β-D-ribofuranosyl)benzimidazole], in data set [2] (setting [9]), the IC50 worked out at 9.5 µM. This compound displayed a CC50 in data set [4] of 15 µM. For the same compound, the “antiviral activity of known compounds (in words)” value in data set [7] was “useful against HCMV infections; also recorded: very potent activity against HCMV”. Besides, the “cytotoxicity of known compounds (in words)” value in data set [8] is “low cellular toxicity at concentrations inhibiting viral growth”.
